# Data reported in article PMC3251870 (British Journal of Cancer, 2011).
# Key:
# [1] = system: MEL270 uveal melanoma cells; assay: MTS cell viability, MEL270; type: cell-based, human; conditions: 4 days
# Procedure: (§1) All human cancer cell lines were maintained in RPMI media supplemented with 5% (lung and breast cancer cells) or 10% (melanoma cells) fetal bovine serum. […] Human mammary epithelial cells immortalised with telomerase were maintained in complete MEGM media from Cambrex (East Rutherford, NJ, USA).
# (§2) Absorbance at 490 and 650 nm (reference wavelength) was measured by a Spectra Max (Molecular Devices, Sunnyvale, CA, USA) or a FlouroStar Omega (BMG Biosciences, Ortenberg, Germany) plate reader. Data were normalised to the untreated controls (100% viability). Each cell line was tested in 1–5 independent assays, each containing 4–8 replicates. IC50 values were calculated using DIVISA, a high-throughput software, developed in-house (manuscript in preparation), for storing and analysing drug sensitivity assays. Dose–response curves were plotted using a non-linear regression model and IC50s were determined from the fitted curves.
# HCC366 cells = assay: MTS cell viability, HCC366; type: cell-based, human; conditions: HCC366 NSCLC, 4 days
# Procedure: as §1, §2
# [2] = system: HBEC15KT human bronchial epithelial cells; assay: MTS cell viability, HBEC15KT; type: cell-based; conditions: 4 days
# Procedure: as §1, §2
# [3] = system: OCM1 uveal melanoma cells; assay: MTS cell viability, OCM1; type: cell-based, human; conditions: 4 days
# Procedure: as §1, §2
# H820 cells = assay: MTS cell viability, H820; type: cell-based, human; conditions: H820 NSCLC, 4 days
# Procedure: as §1, §2
# H2073 cells = assay: MTS cell viability, H2073; type: cell-based, human; conditions: H2073 NSCLC, MTS, 4 days
# Procedure: as §1, §2
# [4] = system: HBEC3KT human bronchial epithelial cells; assay: MTS cell viability, HBEC3KT; type: cell-based; conditions: 4 days
# Procedure: as §1, §2
# [5] = system: histone 3 trimethylated at lysine 9 in H358 cells; assay: Western blot, histone 3 lysine 9 trimethylation; type: cell-based, human
# Procedure: (§3) Exponentially growing cells were treated with the appropriate compounds and harvested 4 or 24 h later in a standard nuclear lysis buffer and whole cell lysates were quantified. Equal amounts of total protein were loaded onto 4–12% Bis-Tris SDS gels and subjected to electrophoresis. After transferring onto nitrocellulose membranes, blots were probed for acetylated tubulin (Sigma, St Louis, MO, USA; T6793), acetylated histone 3 (Millipore/Upstate #06-599), acetylated histone 4 (Millipore/Upstate #07-329) or trimethylated histone 3 at lysine 9 (Millipore/Upstate #07-523). Actin (Santa Cruz, Santa Cruz, CA, USA; #1616) and HDAC1 (Affinity Bioreagents, Rockford, IL, USA; #PA1-860) were probed as loading controls. Quantification of bands in films was performed using two independent methods, which yielded similar results, Image J (NIH public software) and Quantity one (Bio-Rad, Hercules, CA, USA). The average of the two methods±s.e.m. is shown as specified in figure legends. For the MDR western analysis, a primary antibody against P-glycoprotein from Calbiochem (Darmstadt, Germany) was used according to the manufacturer's recommendations and HSP90 (Santa Cruz) was used as a loading control.
# M14 melanoma cells = assay: MTS cell viability, M14; type: cell-based, human; conditions: 4 days
# Procedure: as §1, §2
# SKMEL28 melanoma cells = assay: MTS cell viability, SKMEL28; type: cell-based, human; conditions: 4 days
# Procedure: as §1, §2
# [6] = system: histone 3 acetylation in H358 cells; assay: Western blot, acetylated histone 3; type: cell-based, human; conditions: 24 h
# Procedure: as §3
# SKMEL2 melanoma cells = assay: MTS cell viability, SKMEL2; type: cell-based, human; conditions: SKMEL2 melanoma, MTS, 4 days
# Procedure: as §1, §2
# [7] = system: histone 4 acetylation in H358 cells; assay: Western blot, acetylated histone 4; type: cell-based, human; conditions: 4 h
# Procedure: as §3
# HCC1500 cells = assay: MTS cell viability, HCC1500; type: cell-based, human; conditions: HCC1500 breast cancer line, 4 days
# Procedure: as §1, §2
# HCC15 cells = assay: MTS cell viability, HCC15; type: cell-based, human; conditions: HCC15 NSCLC, MTS, 4 days
# Procedure: as §1, §2
# H2009 cells = assay: MTS cell viability, H2009; type: cell-based, human; conditions: H2009 NSCLC, 4 days
# Procedure: as §1, §2
# [8] = system: HBEC30KT human bronchial epithelial cells; assay: MTS cell viability, HBEC30KT; type: cell-based; conditions: HBEC30KT (normal, matched to HCC4017), 4 days
# Procedure: as §1, §2
# A549 cells = assay: MTS cell viability, A549; type: cell-based, human; conditions: A549 NSCLC, 4 days
# Procedure: as §1, §2
# LOXIMVI melanoma cells = assay: MTS cell viability, LOXIMVI; type: cell-based, human; conditions: LOXIMVI melanoma, 4 days
# Procedure: as §1, §2
# [9] = system: OMM2.3 uveal melanoma cells; assay: MTS cell viability, OMM2.3; type: cell-based, human; conditions: 4 days
# Procedure: as §1, §2
# [10] = system: 348T immortalised normal human mammary epithelial cells; assay: MTS cell viability, 348T; type: cell-based; conditions: 4 days
# Procedure: as §1, §2
# [11] = system: HCC4017 lung cancer cells; assay: MTS cell viability, HCC4017; type: cell-based, human; conditions: HCC4017 (lung cancer, matched to HBEC30KT), MTS, 4 days
# Procedure: as §1, §2
# [12] = system: 1585T immortalised normal human mammary epithelial cells; assay: MTS cell viability, 1585T; type: cell-based; conditions: 4 days
# Procedure: as §1, §2
# H1299 cells = assay: MTS cell viability, H1299; type: cell-based, human; conditions: H1299 NSCLC, 4 days
# Procedure: as §1, §2
# HCC1954 cells = assay: MTS cell viability, HCC1954; type: cell-based, human; conditions: HCC1954 breast cancer line, 4 days
# Procedure: as §1, §2
# Melanocytes = assay: MTS cell viability, primary melanocytes; type: cell-based, human; conditions: 4 days
# Procedure: as §1, §2
# H2085 cells = assay: MTS cell viability, H2085; type: cell-based, human; conditions: H2085 NSCLC, 4 days
# Procedure: as §1, §2
# HCC1806 cells = assay: MTS cell viability, HCC1806; type: cell-based, human; conditions: HCC1806 breast cancer line, 4 days
# Procedure: as §1, §2
# [13] = system: total HDAC activity, C127 cell extracts; assay: Total HDAC activity in cell extracts treated in vitro; type: biochemical
# Excerpt: HDAC2 was purified as described below.
# [14] = system: HCC4018 lung cancer cells; assay: MTS cell viability, HCC4018; type: cell-based, human; conditions: HCC4018 (lung cancer, matched to HBEC34KT), MTS, 4 days
# Procedure: as §1, §2
# [15] = system: HBEC16KT human bronchial epithelial cells; assay: MTS cell viability, HBEC16KT; type: cell-based; conditions: 4 days
# Procedure: as §1, §2
# UACC257 melanoma cells = assay: MTS cell viability, UACC257; type: cell-based, human; conditions: 4 days
# Procedure: as §1, §2
# [16] = system: OCM3 uveal melanoma cells; assay: MTS cell viability, OCM3; type: cell-based, human; conditions: 4 days
# Procedure: as §1, §2
smiles,measurement,setting,value
"C/C=C1\NC(=O)[C@H]2CSSCC/C=C/[C@H](CC(=O)N[C@H](C(C)C)C(=O)N2)OC(=O)[C@H](C(C)C)NC1=O [Depsipeptide, depsipeptide]",IC50,[1],1.8 nM
same,IC50,HCC366 cells,3.1 nM
same,IC50,[2],2.5 nM
same,IC50,[3],5.5 nM
same,IC50,H820 cells,4 nM
same,IC50,H2073 cells,37.1 nM
same,IC50,[4],1 nM
same,global level of histone 3 trimethylated at lysine 9,[5]; 25 nM,reproducibly decreased
same,IC50,M14 melanoma cells,2.4 nM
same,IC50,SKMEL28 melanoma cells,0.8 nM
same,global level of histone 3 acetylation,[6]; 25 nM,globally increased
same,IC50,SKMEL2 melanoma cells,0.4 nM
same,global level of histone 4 acetylation,[7]; 25 nM,globally increased
same,IC50,HCC1500 cells,1.5 nM
same,IC50,HCC15 cells,6.4 nM
same,IC50,H2009 cells,0.9 nM
same,IC50,[8],0.9 nM
same,IC50,A549 cells,2 nM
same,IC50,LOXIMVI melanoma cells,1.2 nM
same,IC50,[9],2.7 nM
same,IC50,[10],1.3 nM
same,IC50,[11],6.5 nM
same,IC50,[12],1.3 nM
same,IC50,H1299 cells,12.1 nM
same,IC50,HCC1954 cells,1.5 nM
same,IC50,Melanocytes,0.9 nM
same,IC50,H2085 cells,6.9 nM
same,IC50,HCC1806 cells,1.8 nM
same,inhibition of total HDAC activity in cell extracts treated in vitro,[13]; 20 nM,partly inhibited
same,IC50,[14],4.2 nM
same,IC50,[15],4.9 nM
same,IC50,UACC257 melanoma cells,1.6 nM
same,IC50,[16],1.5 nM
"CC(/C=C/C(=O)NO)=C\[C@@H](C)C(=O)c1ccc(N(C)C)cc1 [TSA, trichostatin A]",IC50,[1],68 nM
same,IC50,HCC366 cells,147 nM
same,IC50,[2],295 nM
same,IC50,[3],188 nM
same,IC50,H820 cells,55 nM
same,IC50,H2073 cells,63.7 nM
same,IC50,[4],318 nM
same,global level of histone 3 trimethylated at lysine 9,[5]; 200 nM,no effect
same,IC50,M14 melanoma cells,98 nM
same,IC50,SKMEL28 melanoma cells,400 nM
same,global level of histone 3 acetylation,[6]; 200 nM,globally increased
same,IC50,SKMEL2 melanoma cells,336 nM
same,global level of histone 4 acetylation,[7]; 200 nM,globally increased
same,IC50,HCC1500 cells,29 nM
same,IC50,HCC15 cells,7.9 nM
same,IC50,H2009 cells,38.3 nM
same,IC50,[8],285 nM
same,IC50,A549 cells,39.7 nM
same,IC50,LOXIMVI melanoma cells,57 nM
same,IC50,[9],81 nM
same,IC50,[10],81 nM
same,IC50,[11],73 nM
same,IC50,[12],124 nM
same,IC50,H1299 cells,150 nM
same,IC50,HCC1954 cells,91 nM
same,IC50,Melanocytes,284 nM
same,IC50,H2085 cells,390 nM
same,IC50,HCC1806 cells,41 nM
same,inhibition of total HDAC activity in cell extracts treated in vitro,[13]; 150 nM,blocked
same,IC50,[14],23 nM
same,IC50,[15],260 nM
same,IC50,UACC257 melanoma cells,222 nM
same,IC50,[16],220 nM
